The source of these data is patent US7666843B2, “Methods and compositions for treatment of neurological disorder” (Children's Medical Center Corporation, priority 2002, dated 2010).

“Also recorded” adds a separate entry of the source. Where two headings read alike, the source gives them in different places.

Common to all, as to type: cell-based
Assay [1] has as its system goldfish retinal ganglion cells. The assay is described as follows: Goldfish retinal ganglion cell culture, axon outgrowth bioassay. The following applies: goldfish RGCs; for axon outgrowth in response to monosaccharides: sugar alone, 50 or 100 μM, D-configuration, FIG. 7a; for effect on axon growth induced by AF-1: 6-TG 20 μM, NBTI 20 μM, H89 5 μM, FIG. 2, 4; for effect on axon growth induced by AF-1 / axon growth induced by cAMP-elevating agent on its own: Sp-cAMPs 150 μM; for axon growth induced by cAMP-elevating agent on its own: FIG. 4. As for the experimental part:
Goldfish retinal ganglion cells are prepared as described in PCT application serial no. PCT/US98/03001, the contents of which are incorporated herein by reference, and contacted with a hexose derivative such as mannose. The ability of the hexose derivative to stimulate axonal outgrowth from the goldfish retinal ganglion cells is monitored as described in PCT application serial no. PCT/US98/03001.
Goldfish retinal ganglion cell cultures. Mammalian AF-1 was initially characterized in bioassays using dissociated goldfish retinal ganglion cells (RGCs). In brief, Comet variety goldfish (Mt. Parnell Fisheries, PA) were dark-adapted, cooled to 4° C., and killed by cervical transection. Retinas were dissected and dissociated by incubation in papain followed by a series of trituration steps that result in an RGC-enriched cell suspension (Schwartz & Agronoff,; Schwalb et al., 1995). Approximately 500 RGCs per well were plated together with the experimental samples to be tested in defined, serum-free media containing Leibovitz' L15 media (Gibco BRL) plus N1 and N2 supplements (Bottenstein, Saito), antioxidants, and bovine serum albumin as described in detail elsewhere (Schwalb et al., 1995). In each experiment, 4 wells of each sample were distributed in 24-well plates in a blinded fashion so that the person evaluating axon outgrowth was unaware of the type of sample present in each well. Experiments included a positive control (previously validated goldfish AF-1 or inosine) and a negative control (defined media alone), likewise distributed on the plate in quadruplicate in a blinded fashion. After 6 days in culture at 21° C., axon outgrowth, operationally defined as the percent of RGCs that extended an axon≧5 cell diameters in length, was evaluated in approximately 150 consecutively encountered RGCs per well. […] Data are presented as normalized means ± SEM. All experiments were repeated at least 3 times.

The test system is the same in assay [2]. The assay is described as follows: Goldfish retinal ganglion cell culture, cell survival. As to conditions: MH 10 mM, sugars at low micromolar concentrations. As to the method: Goldfish retinal ganglion cell cultures. Mammalian AF-1 was initially characterized in bioassays using dissociated goldfish retinal ganglion cells (RGCs). In brief, Comet variety goldfish (Mt. Parnell Fisheries, PA) were dark-adapted, cooled to 4° C., and killed by cervical transection. Retinas were dissected and dissociated by incubation in papain followed by a series of trituration steps that result in an RGC-enriched cell suspension (Schwartz & Agronoff,; Schwalb et al., 1995). Approximately 500 RGCs per well were plated together with the experimental samples to be tested in defined, serum-free media containing Leibovitz' L15 media (Gibco BRL) plus N1 and N2 supplements (Bottenstein, Saito), antioxidants, and bovine serum albumin as described in detail elsewhere (Schwalb et al., 1995). In each experiment, 4 wells of each sample were distributed in 24-well plates in a blinded fashion so that the person evaluating axon outgrowth was unaware of the type of sample present in each well. Experiments included a positive control (previously validated goldfish AF-1 or inosine) and a negative control (defined media alone), likewise distributed on the plate in quadruplicate in a blinded fashion. After 6 days in culture at 21° C., axon outgrowth, operationally defined as the percent of RGCs that extended an axon≧5 cell diameters in length, was evaluated in approximately 150 consecutively encountered RGCs per well. Data were analyzed by averaging axon growth in the 4 wells for each sample, subtracting the level of growth found in negative controls (typically 3-5%), and normalizing by the net growth in positive controls (usually 20-40%). Data are presented as normalized means ± SEM. All experiments were repeated at least 3 times.

Assay [3] has as its system rat retinal ganglion cells. The experiment in a line: Rat retinal ganglion cell culture, axon outgrowth. As to conditions: rat RGCs; for axon outgrowth, agent by itself: 3 days, no other factor added, forskolin 5 μM in FIG. 9a; for axon outgrowth in the presence of forskolin: compared to forskolin alone, glucose up to 5 mM, mannose-6-phosphate up to 10 mM, 9c; for effect on axon growth induced by the low molecular weight vitreous factor (VE<3): FIG. 3a.
Excerpt: (§1) Rat retinal ganglion cell cultures. Retinal ganglion cells were identified by retrograde labeling with Fluorogold (FG: Fluorochrome, Inc.). […] After allowing 7 days for FG to be retrogradely transported up the optic nerve, rats were killed, eyes were removed, and the retinas dissected. Retinas were dissociated with papain treatment followed by trituration. Mixed cultures containing 100-150 FG-labeled RGCs per well were maintained in 24 well plates in a defined, serum-free media (Minimal Essential Media containing NaHCO3,) at 37° C. at 5% CO2 for 3 days.

For assay [4], the system named is rat retinal ganglion cells. The assay is described as follows: Rat retinal ganglion cell culture, cell survival.
Excerpt: as §1

Take `O=C(CO)[C@@H](O)[C@@H](O)[C@H](O)[C@H](O)CO` [MH, mannoheptulose]: the “effect on mannose-induced axon outgrowth” value in assay [1] (KT5720 1 μM, MH 10 mM, dBcAMP, late fraction with 50 μM mannose) is listed as “had no effect on outgrowth induced by glucose or mannose; also recorded: has no effect on outgrowth induced by glucose or mannose”. The “effect on glucose-induced axon outgrowth” value in assay [1] (glucose 10 μM (50 μM with late fraction), dBcAMP 1 mM, forskolin 10 μM, Rp-cAMPs 100 μM, 3-O-MG 100:1, 2-DG 1 mM, MH 10 mM) is listed as “had no effect on outgrowth induced by glucose or mannose; also recorded: has no effect on outgrowth induced by glucose or mannose”. In addition, the “cell survival (viable RGCs per field)” value in assay [2] is on record as “detrimental to cell survival; also recorded: decreases cell survival”.
Regarding `O=C[C@@H](O)[C@@H](O)[C@H](O)[C@H](O)CO` [mannose, D-mannose], the EC50 in assay [1] (Carassius auratus, FIG. 7c, read-out: ED50 of axon outgrowth) was approximately 10 µM; in assay [3] (in the presence of forskolin, data not shown, read-out: ED50 of axon outgrowth) it was approximately 10 µM. Further, the “concentration at which the effect on axon outgrowth saturates” value in assay [1] (FIG. 7c) lay within 25 to 50 µM. Moreover, in assay [1], the “axon outgrowth in response to monosaccharides” value was “stimulated as much outgrowth as the low molecular weight factor; also recorded: induced axon growth”. Also, the entries for the “cell survival (viable RGCs per field)” value in assay [2], in assay [4] and in assay [4] (listed as D-mannose) were “no effect on cell survival; also recorded: not related to any changes in cell survival”, “not related to cell survival; also recorded: independent of any changes in cell survival” and “unrelated to changes in cell survival”, respectively. Besides, the “axon outgrowth, agent by itself” value in assay [3] is “marginally significant response”; in assay [3] (listed as D-mannose), “little effect”; in assay [3] (listed as Mannose), “small, marginally significant level of outgrowth”. Besides, in assay [3] (in the presence of forskolin), the “increase of axon outgrowth over baseline” value turned out to be 3 fold. Further, the “axon outgrowth in the presence of forskolin” value (shortened to “axon outgrowth in the presence”) in assay [3] (with forskolin, FIG. 9a) was “more than doubled the level axon growth induced by forskolin alone; also recorded: striking increase in outgrowth; also recorded: respond strongly”.
Consider `O=C[C@H](O)[C@@H](O)[C@H](O)[C@H](O)CO` [glucose, D-glucose], for which the “axon outgrowth in response to monosaccharides” value in assay [1] is listed as “stimulated as much outgrowth as the low molecular weight factor; also recorded: induced axon growth”. Besides, the “level of axon growth relative to that seen with the vitreous extract” value in assay [1] (sugar by itself, FIG. 7d) was “about 70%”. In addition, in assay [2], the “cell survival (viable RGCs per field)” value is “no effect on cell survival; also recorded: not related to any changes in cell survival”. In addition, the “axon outgrowth in the presence” value in assay [3] (with forskolin, FIG. 9a) is “failed to induce growth above the level of forskolin alone; also recorded: no effect whatsoever”; in assay [3] (with forskolin, FIG. 9a, listed as Glucose), “inactive”. The “effect of added glucose on mannose-induced growth” value in assay [3] (with forskolin, high concentrations of glucose, FIG. 9a) was “not augmented further; also recorded: not altered”.
On to `Nc1ncnc2c1ncn2[C@@H]1O[C@@H]2COP(O)(=S)O[C@H]2[C@H]1O` (some centres unmarked) [Sp-cAMPs], for which the “effect on axon growth induced by AF-1” value is reported as “non-statistically significant decrease in outgrowth” in assay [1] (forskolin 10 μM, Rp-cAMPs 100 μM) and “not enhanced; also recorded: reduced the level of outgrowth” in assay [1] (forskolin 10 μM, Rp-cAMPs 100 μM, listed as Sp-cAMP-s). The “axon growth induced by cAMP-elevating agent on its own” value is listed as “Neither forskolin (10 μM) nor Sp-cAMPs (150 μM) induced growth on its own” in assay [1] (forskolin 10 μM) and “Neither forskolin nor Sp-cAMP-s by itself stimulated axon growth” in assay [1] (forskolin 10 μM, listed as Sp-cAMP-s). Also, the “axon outgrowth, agent by itself” value in assay [3] was “little effect on outgrowth”. Moreover, the results for the “effect on axon growth induced by the low molecular weight vitreous factor (VE<3)” value in assay [3] and in assay [3] (listed as Sp-cAMP-s) were “greatly potentiated” and “strongly potentiates”, respectively.
As to `O=C[C@H](O)[C@H](O)[C@@H](O)[C@H](O)CO` [D-gulose], in assay [1], the “axon outgrowth in response to monosaccharides” value is reported as “failed to stimulate outgrowth”. In assay [3] (with forskolin, FIG. 9a), the “axon outgrowth in the presence” value is “some activity”.
Turning to `N[C@H]1C(O)O[C@H](CO)[C@@H](O)[C@@H]1O` (stereo partly drawn) [D-glucosamine], the “axon outgrowth in response to glucose/mannose analogs” value in assay [1] (analog alone (L-enantiomers 100 μM, D-glucosamine 25 μM, 2-deoxy-D-glucose 1 mM), FIG. 8a) is listed as “strongly active”. The “axon outgrowth in the presence” value in assay [3] (with forskolin, FIG. 9a) is “did not respond”.
